What was measured:
[1] = target: T1, Thyroid hormone receptor beta (Homo sapiens, UniProt P10828)
T1 sequence (P10828 whole entry): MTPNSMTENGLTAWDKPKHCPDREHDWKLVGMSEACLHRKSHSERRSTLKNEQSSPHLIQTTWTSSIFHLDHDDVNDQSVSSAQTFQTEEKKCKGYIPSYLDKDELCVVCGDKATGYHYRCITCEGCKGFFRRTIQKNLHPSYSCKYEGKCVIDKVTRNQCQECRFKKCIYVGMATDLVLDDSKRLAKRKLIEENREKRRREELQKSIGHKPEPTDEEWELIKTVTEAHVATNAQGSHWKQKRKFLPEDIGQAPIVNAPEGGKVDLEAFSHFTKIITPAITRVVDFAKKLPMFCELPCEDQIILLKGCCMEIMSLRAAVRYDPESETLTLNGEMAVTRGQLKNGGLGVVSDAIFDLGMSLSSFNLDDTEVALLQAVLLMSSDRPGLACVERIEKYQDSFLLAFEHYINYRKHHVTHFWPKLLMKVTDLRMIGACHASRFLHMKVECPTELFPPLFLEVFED

[2] = target: T2, Thyroid hormone receptor alpha (Homo sapiens, UniProt P10827); experiment: Agonist activity at human thyroid hormone receptor alpha expressed in CV1 cells by TRE-luciferase assay; format: functional, cell-based, CV-1
T2 sequence (P10827 whole entry): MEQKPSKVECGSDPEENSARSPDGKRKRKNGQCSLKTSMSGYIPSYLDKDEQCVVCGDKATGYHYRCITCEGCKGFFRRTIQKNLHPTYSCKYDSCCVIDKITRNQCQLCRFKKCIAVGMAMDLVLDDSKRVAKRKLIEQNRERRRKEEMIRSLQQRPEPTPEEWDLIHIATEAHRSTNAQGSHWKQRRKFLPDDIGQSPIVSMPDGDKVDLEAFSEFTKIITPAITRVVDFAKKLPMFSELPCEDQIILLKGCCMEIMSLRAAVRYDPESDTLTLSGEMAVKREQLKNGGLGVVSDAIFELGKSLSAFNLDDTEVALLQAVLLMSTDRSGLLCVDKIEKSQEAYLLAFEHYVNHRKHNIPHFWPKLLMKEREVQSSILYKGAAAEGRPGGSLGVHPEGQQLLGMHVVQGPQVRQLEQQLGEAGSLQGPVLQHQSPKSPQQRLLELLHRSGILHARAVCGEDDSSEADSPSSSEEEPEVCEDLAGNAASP

Compound: CC(C)c1cc(Oc2c(Cl)cc(Nc3c(O)c(=O)c3=O)cc2Cl)ccc1O
- EC50 [1]: 70 nM
- EC50 [2]: 222 nM

Compound: CC(C)(C)c1cc(Oc2c(Cl)cc(Nc3c(O)c(=O)c3=O)cc2Cl)ccc1O
- EC50 [1]: 317 nM
- EC50 [2]: 1060 nM

From ChEMBL document CHEMBL1155100, “Design and synthesis of novel 3-hydroxy-cyclobut-3-ene-1,2-dione derivatives as thyroid hormone receptor beta (TR-beta) selective ligands” (Bioorg Med Chem Lett, 2008)
